Results: patent US20120115869A1, “TETRAZOLE DERIVATIVES” (MERCK SERONO S.A., priority 2009, published 2012)

Molecular target: T1, CRTH2 (DP2) (Homo sapiens, UniProt Q9Y5Y4)
T1 construct: host or cells: CHO cells
T1 sequence (Q9Y5Y4 1-395): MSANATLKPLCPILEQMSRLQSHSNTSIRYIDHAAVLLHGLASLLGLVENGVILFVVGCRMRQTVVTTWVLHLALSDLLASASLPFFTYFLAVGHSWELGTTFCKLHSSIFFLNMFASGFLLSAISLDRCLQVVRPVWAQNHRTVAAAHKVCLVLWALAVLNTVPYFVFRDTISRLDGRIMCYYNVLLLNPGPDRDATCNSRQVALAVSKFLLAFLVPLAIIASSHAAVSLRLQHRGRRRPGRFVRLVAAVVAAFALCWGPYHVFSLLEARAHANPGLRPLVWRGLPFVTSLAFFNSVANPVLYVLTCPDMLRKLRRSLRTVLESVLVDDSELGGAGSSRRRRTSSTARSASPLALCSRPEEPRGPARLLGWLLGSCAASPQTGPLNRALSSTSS
Assay: Radioligand binding Scintillation Proximity Assay ([3H]PGD2, hCRTH2-CHO cell membranes)
Conditions: 1.5 nM [3H]PGD2, hCRTH2-CHO cell membranes, SPA
Procedure: Adherent CHO cells expressing hCRTH2 (Euroscreen, Belgium) were cultured in 225 cm^2 cell culture flasks (Corning, USA) in 30 ml of medium. After two rinses of phosphate buffered saline (PBS), cells were harvested in 10 ml of PBS containing 1 mM EDTA, centrifuged at 500×g for 5 min at 4° C. and frozen at −80° C. The pellet was re-suspended in 50 mM Tris-HCl, pH 7.4, 2 mM EDTA, 250 mM Sucrose, containing protease inhibitor cocktail tablets, (Complete EDTA-free, Roche, Germany) and incubated 30 min at 4° C. Cells were disrupted by nitrogen cavitation (Parr Instruments, USA) at 4° C. (800 p.s.i. for 30 min), and centrifuged at 500×g for 10 min at 4° C. Pellet containing nuclei and cellular debris was discarded and supernatant was centrifuged 60 min at 4° C. at 45000×g. Membrane pellet was re-suspended in storage buffer (10 mM HEPES/KOH pH 7.4, 1 mM EDTA, 250 mM sucrose, protease inhibitor cocktail tablets) using Dounce homogenization and frozen in liquid nitrogen, and stored at 80° C.
Non-specific binding was determined in the presence of 10 μM PGD2 (Cayman, USA). Competing Compounds of Formula (I) were diluted in dimethylsulphoxide so that the total volume of dimethylsulfoxide was kept constant at 1% dimethylsulphoxide (Me2SO). Serial dilutions of […] were prepared and 10 μl each of the compounds of Formula (I) stock solutions were added to the binding assay reagents and incubated for 90 min with agitation at room temperature.

| Structure (SMILES) | IC50 [nM] |
| --- | --- |
| CCC(=O)N(Cc1ccc(F)cc1)c1cccc(-c2nnn[nH]2)c1 [Example 31, N-(4-fluorobenzyl)-N-[3-(1H-tetrazol-5-yl)phenyl]propanamide] | 1540 |
| CCC(=O)N(Cc1cccs1)c1cccc(-c2nnn[nH]2)c1 [Example 17, N-[3-(1H-tetrazol-5-yl)phenyl]-N-(2-thienylmethyl)propanamide] | 1590 |
| CCC(=O)N(Cc1cccc(C(F)(F)F)c1)c1cccc(-c2nnn[nH]2)c1 [Example 28, N-[3-(1H-tetrazol-5-yl)phenyl]-N-[3-(trifluoromethyl)benzyl]propanamide] | 268 |
| CCC(=O)N(Cc1cccc(OC)c1)c1cccc(-c2nnn[nH]2)c1 [Example 25, N-(3-methoxybenzyl)-N-[3-(1H-tetrazol-5-yl)phenyl]propanamide] | 444 |
| CCC(=O)N(Cc1c(C)noc1-c1ccccc1)c1cccc(-c2nnn[nH]2)c1 [Example 24, N-[(3-methyl-5-phenylisoxazol-4-yl)methyl]-N-[3-(1H-tetrazol-5-yl)phenyl]propanamide] | 2180 |
| CCCCC(=O)N(Cc1ccsc1)c1cccc(-c2nnn[nH]2)c1 [Example 21, N-[3-(1H-tetrazol-5-yl)phenyl]-N-(3-thienylmethyl)pentanamide] | 759 |
| CCC(=O)N(Cc1ccc(OC)cc1)c1cccc(-c2nnn[nH]2)c1 [Example 26, N-(4-methoxybenzyl)-N-[3-(1H-tetrazol-5-yl)phenyl]propanamide] | 268 |
| CCC(=O)N(Cc1ccc(OC(F)(F)F)c(Cl)c1)c1cccc(-c2nnn[nH]2)c1 [Example 45, N-[3-chloro-4-(trifluoromethoxy)benzyl]-N-[3-(1H-tetrazol-5-yl)phenyl]propanamide] | 83 |

Now from value to compound:

| IC50 [nM] | Structure (SMILES) |
| --- | --- |
| 70 | CCC(=O)N(Cc1ccc(-c2ccccc2)cc1)c1cc(F)cc(-c2nnn[nH]2)c1 [Example 97, N-(biphenyl-4-ylmethyl)-N-[3-fluoro-5-(1H-tetrazol-5-yl)phenyl]propanamide] |
| 19 | CCC(=O)N(Cc1cccc(-c2c(C)noc2C)c1)c1cc(F)cc(-c2nnn[nH]2)c1 [Example 85, N-[3-(3,5-dimethylisoxazol-4-yl)benzyl]-N-[3-fluoro-5-(1H-tetrazol-5-yl)phenyl]propanamide] |
| 1140 | CCC(=O)N(Cc1cccc(C#CCOC)c1)c1cccc(-c2nnn[nH]2)c1 [Example 47, N-[3-(3-methoxyprop-1-yn-1-yl)benzyl]-N-[3-(1H-tetrazol-5-yl)phenyl]propanamide] |
| 2.6 | CCCCC(=O)N(Cc1ccc(C(F)(F)F)cc1)c1cc(F)cc(-c2nnn[nH]2)c1 [Example 60, N-[3-fluoro-5-(1H-tetrazol-5-yl)phenyl]-N-[4-(trifluoromethyl)benzyl]pentanamide] |
| 56 | Cc1cc(C(=O)N(Cc2ccc(S(C)(=O)=O)cc2)c2cc(F)cc(-c3nnn[nH]3)c2)n(C)n1 [Example 110, N-[3-fluoro-5-(1H-tetrazol-5-yl)phenyl]-1,3-dimethyl-N-[4-(methylsulfonyl)benzyl]-1H-pyrazole-5-carboxamide] |
| 25 | CCC(=O)N(Cc1ccc(O)cc1)c1cc(F)cc(-c2nnn[nH]2)c1 [Example 114, N-[3-fluoro-5-(1H-tetrazol-5-yl)phenyl]-N-(4-hydroxybenzyl)propanamide] |
| 16 | CCC(=O)N(Cc1cccc(SC(F)(F)F)c1)c1cc(F)cc(-c2nnn[nH]2)c1 [Example 77, N-[3-fluoro-5-(1H-tetrazol-5-yl)phenyl]-N-{3-[(trifluoromethyl)thio]benzyl}propanamide] |
| 6680 | CCC(=O)N(Cc1ccncc1)c1cccc(-c2nnn[nH]2)c1 [Example 52, N-(pyridin-4-ylmethyl)-N-[3-(1H-tetrazol-5-yl)phenyl]propanamide] |
| 662 | CCC(=O)N(Cc1cccc(C)c1)c1cccc(-c2nnn[nH]2)c1 [Example 73, N-(3-methylbenzyl)-N-[3-(1H-tetrazol-5-yl)phenyl]propanamide] |
